Results taken from patent publication US20070117776A1, “Low Dose Therapy Of DNA Methylation Inhibitors” (priority 2005, published 2007).

How the values were obtained:
cytidine deaminases = conditions: enzymatic degradation by cytidine deaminases, particularly in the small intestine; cited from earlier work
[1] = Maximum degradation in the infusion estimated for selected infusion schedules; assay type: physicochemical; conditions: 0.1-1 mg/mL; for Average degradation rate: estimate assuming linearity
Protocol: Table 3 summarizes the maximum degradation estimated using a series of infusion schedules (S1 through S7 as denoted in the table) selected to establish degradation limits and acceptable shelf life of the diluted solution. The average degradation rate used for calculations is based on the assumption that degradation in solutions is linear and the slope between the initial and the terminal time point is considered to be worst case. If the solution is prepared appropriately and used immediately, degradation would be minimal. It is recommended that a diluted infusion should not be stored longer than seven hours in a refrigerator for a three hour infusion or longer than 10 hours in a refrigerator for a two hour infusion in order to stay within the 10% maximum limit allowed for degradation.

Average degradation rate ([1]; @ 4° C.): 0.40 %/hr | Average degradation rate ([1]; @ Room Temperature): 2.44 %/hr | Maximum degradation ([1]; S1 (6 hr stored @4° C. + 3 hr @ RT during infusion)): 9.72 % peak area | Maximum degradation ([1]; S2 (7 hr stored @4° C. + 3 hr @ RT during infusion)): 10.12 % peak area | Maximum degradation ([1]; S3 (7 hr stored @4° C. + 2 hr @ RT during infusion)): 7.68 % peak area | Maximum degradation ([1]; S4 (8 hr stored @4° C. + 3 hr @ RT during infusion)): 10.52 % peak area | Maximum degradation ([1]; S5 (8 hr stored @4° C. + 2 hr @ RT during infusion)): 8.08 % peak area | Maximum degradation ([1]; S6 (9 hr stored @4° C. + 2 hr @ RT during infusion)): 8.48 % peak area | Maximum degradation ([1]; S7 (10 hr stored @4° C. + 2 hr @ RT during infusion)): 8.88 % peak area
SMILES: Nc1ncn([C@H]2C[C@H](O)[C@@H](CO)O2)c(=O)n1 [Decitabine, 4-amino-1-(2-deoxy-β-D-erythro-pentofuranosyl)-1,3,5-triazin-2(1H)-one]
oral bioavailability (cytidine deaminases): reduced oral bioavailability
